Measured values published in patent US4551479A, “Compounds with anti-convulsive properties” (Akzo N.V., priority 1983, dated 1985).
Counter-ions that a name gives are not always drawn. Like-named read-outs stand apart in the source and are kept apart here.

Experiments:
[1] = system: tonic convulsion; assay: Electroshock test (anti-convulsive properties); format: in vivo; settings: ip, read-out: Anti-convulsive properties, Electroshock test ED200 i.p.
Text: ^(1) The ED200 is the dose of the test compound (in mg/kg) which
necessitates a 100% increase of the current intensity to bring about a
tonic convulsion in 50% of the test animals.

[2] = system: Pentylenetetrazole (PTZ) cramp condition; assay: PTZ (pentylenetetrazole) test (anti-convulsive properties); format: in vivo; settings: ip, read-out: Anti-convulsive properties, PTZ test ED50 i.p.
Text: ^(2) Pentylenetetrazole (i.e. PTZ) directly activates the nerve
endings, leading to a cramp condition.

[3] = Rotarod (neurotoxicity and sedation); settings: ip
[4] = Shuttle box (neurotoxicity and sedation); settings: ip
[5] = system: benzodiazepine receptors; assay: Antagonism of anti-convulsive effect by benzodiazepine antagonist Ro 15-1788; format: in vivo; settings: administration of Ro 15-1788

| Compound | ED200 [1] [mg/kg] | ED50 [2] [mg/kg] | TD50 [3] [mg/kg] | TD50 [4] [mg/kg] | Effect of benzodiazepine antagonist (Ro 15-1788) on the anti-convulsive effect [5] | ED200 ([1]; dose necessitating a 100% increase of current intensity to bring about tonic convulsion in 50% of test animals) [mg/kg] | ED50 ([2]; pentylenetetrazole) [mg/kg] |
| --- | --- | --- | --- | --- | --- | --- | --- |
| CN(C)C1C2C=CCC1c1ccccc1C2 (stereo not drawn) | 11 | 10 | 70 | > 46 | – | – | – |
| CN1C(=O)CN=C(c2ccccc2)c2cc(Cl)ccc21 [diazepam] | 14 | 0.5 | – | – | completely counteracted | – | – |
| CCCC(CCC)C(=O)O [sodium salt of valproic acid] | 180 | 30 | 230 | 350 | – | – | – |
| O=C1NC(=O)C(c2ccccc2)(c2ccccc2)N1 [diphenyl hydantoin] | – | – | 100 | 100 | – | 15 | 22 |
